Biological target: T1, HIV-integrase (Human immunodeficiency virus type 1 group M subtype B, UniProt P04585)
T1 construct: Recombinant integrase (0.26 ng) was incubated with the beads
Experiment: in-vitro activity against HIV-integrase (HIV Integrase Inhibition, SPA bead assay)
Type: biochemical
Conditions: recombinant integrase, activity class
Protocol: To evaluate in-vitro activity against HIV-integrase, 5 pmole of biotin labeled substrate DNA was bound to 100 μg of Streptavidin coated PVT SPA beads (Amersham Pharmacia Biotech). Recombinant integrase (0.26 ng) was incubated with the beads for 90 min at 37° C. Unbound enzyme was removed by washing the complex followed by addition of inhibitors and […] of P33 labeled target DNA. The reaction was stopped by adding EDTA to a final concentration of 10 mM. Samples were counted in TopCountNXT (Packard) and the CPM was used as a measure of integration. The reaction condition was as described in Engelman, A. and Craigie, R. J. Vitrol. 1996, 69, 5908. The sequences of substrate and target DNA were described in Nucleic Acid Research 1994, 22, 1121.

| Compound | IC50 (Table 1) [nM] | IC50 (Table 1a) [nM] |
| --- | --- | --- |
| CS(=O)(=O)c1cc(F)ccc1CNC(=O)c1nc2n(c(=O)c1O)CCOC21CCOC1 (stereo not shown) [Example 90, N-[[4-fluoro-2-(methylsulfonyl)phenyl]methyl]-4,5,6′,7′-tetrahydro-3′-hydroxy-4′-oxo-spiro[furan-3(2H),9′(4′H)-pyrimido[2,1-c][1,4]oxazine]-2′-carboxamide] | 10 to 100 | – |
| CN(C)S(=O)(=O)c1cc(F)ccc1CNC(=O)c1nc2n(c(=O)c1O)CCOC21CCCC1 [Example 28, N-[[(2-(dimethylamino)sulfonyl]-4-fluorophenyl)methyl]-6′,7′-dihydro-3′-hydroxy-4′-oxo-spiro[cyclopentane-1,9′(4′H)-pyrimido[2,1-c][1,4]oxazine]-2′-carboxamide] | 1 to 10 | – |
| CC(C)(C)c1cn(-c2cc(F)ccc2CNC(=O)c2nc3n(c(=O)c2O)CCOC32CCC2)nn1 [Example 103, Spiro[cyclobutane-1,9′(4′H)-pyrimido[2,1-c][1,4]oxazine]-2′-carboxamide, N-[[2-[4-(1,1-dimethylethyl)-1H-1,2,3-triazol-1-yl]-4-fluorophenyl]methyl]-6′,7′-dihydro-3′-hydroxy-4′-oxo-] | – | 10 to 100 |
| CS(=O)(=O)c1cc(F)ccc1CNC(=O)c1nc2n(c(=O)c1O)CCOC21CCC1 [Example 53, N-[[4-fluoro-2-(methylsulfonyl)phenyl]methyl]-6′,7′-dihydro-3′-hydroxy-4′-oxo-spiro[cyclobutane-1,9′(4′H)-pyrimido[2,1-c][1,4]oxazine]-2′-carboxamide] | 1 to 10 | – |
| O=C(NCc1cc(F)ccc1-n1cncn1)c1nc2n(c(=O)c1O)CCCC21CCCC1 [Example 5, N-[[5-fluoro-2-(1H-1,2,4-triazol-1-yl)phenyl]methyl]-7′,8′-dihydro-3′-hydroxy-4′-oxo-spiro[cyclopentane-1,9′(6′H)-[4H]pyrido[1,2-α]pyrimidine]-2′-carboxamide] | 1 to 10 | – |
| CSc1cc(F)ccc1CNC(=O)c1nc2n(c(=O)c1O)CCOC21CCCC1 [Example 18, N-[[4-fluoro-2-(methylthio)phenyl]methyl]-6′,7′-dihydro-3′-hydroxy-4′-oxo-spiro[cyclopentane-1,9′(4′H)-pyrimido[2,1-c][1,4]oxazine]-2′-carboxamide] | 1 to 10 | – |
| O=C(NCc1ccc(F)cc1N1CCCCS1(=O)=O)c1nc2n(c(=O)c1O)CCCC21CCC1 [Example 79, N-[[4-fluoro-2-(tetrahydro-1,1-dioxido-2H-1,2-thiazin-2-yl)phenyl]methyl]-7′,8′-dihydro-3′-hydroxy-4′-oxo-spiro[cyclobutane-1,9′(6′H)-[4H]pyrido[1,2-α]pyrimidine]-2′-carboxamide] | 1 to 10 | – |
| CN(C)S(=O)(=O)c1cc(F)ccc1CNC(=O)c1nc2n(c(=O)c1O)CCCC21CCCC1 [Example 10, N-[[2-[(dimethylamino)sulfonyl]-4-fluorophenyl]methyl]-7′,8′-dihydro-3′-hydroxy-4′-oxo-spiro[cyclopentane-1,9′(6′H)-[4H]pyrido[1,2-α]pyrimidine]-2′-carboxamide] | 1 to 10 | – |
| Cc1ncnn1-c1cc(F)ccc1CNC(=O)c1nc2n(c(=O)c1O)CCOC21CCCC1 [Example 32, N-[[4-fluoro-2-(5-methyl-1H-1,2,4-triazol-1-yl)phenyl]methyl]-6′,7′-dihydro-3′-hydroxy-4′-oxo-spiro[cyclopentane-1,9′(4′H)-pyrimido[2,1-c][1,4]oxazine]-2′-carboxamide] | 1 to 10 | – |
| O=C(NCc1ccc(F)cc1)c1nc2n(c(=O)c1O)CCOC21CCOCC1 [Example 40, N-[(4-fluorophenyl)methyl]-2,3,5,6,6′,7′-hexahydro-3′-hydroxy-4′-oxo-spiro[4H-pyran-4,9′(4′H)-pyrimido[2,1-c][1,4]oxazine]-2′-carboxamide] | 1 to 10 | – |
| Cc1nc(C)n(-c2cc(F)ccc2CNC(=O)c2nc3n(c(=O)c2O)CCOC32CCC2)n1 [Example 127, Spiro[cyclobutane-1,9′(4′H)-pyrimido[2,1-c][1,4]oxazine]-2′-carboxamide, N-[[2-(3,5-dimethyl-1H-1,2,4-triazol-1-yl)-4-fluorophenyl]methyl]-6′,7′-dihydro-3′-hydroxy-4′-oxo-] | – | 10 to 100 |
| O=C(NCc1ccc(F)cc1-n1ccnn1)c1nc2n(c(=O)c1O)CCOC21CCC1 [Example 101, Spiro[cyclobutane-1,9′(4′H)-pyrimido[2,1-c][1,4]oxazine]-2′-carboxamide, N-[[4-fluoro-2-(1H-1,2,3-triazol-1-yl)phenyl]methyl]-6′,7′-dihydro-3′-hydroxy-4′-oxo-] | – | 1 to 10 |
| CN1CCn2c(nc(C(=O)NCc3ccc(F)cc3-n3cncn3)c(O)c2=O)C12CCCC2 [Example 93, Spiro[cyclopentane-1,9′(6′H)-[4H]pyrazino[1,2-a]pyrimidine]-2′-carboxamide, N-[[4-fluoro-2-(1H-1,2,4-triazol-1-yl)phenyl]methyl]-7′,8′-dihydro-3′-hydroxy-8′-methyl-4′-oxo-] | – | 1 to 10 |
| CS(=O)(=O)c1cc(F)ccc1CNC(=O)c1nc2n(c(=O)c1O)CCOC21COC1 [Example 111, Spiro[oxetane-3,9′(4′H)-pyrimido[2,1-c][1,4]oxazine]-2′-carboxamide, N-[[4-fluoro-2-(methylsulfonyl)phenyl]methyl]-6′,7′-dihydro-3′-hydroxy-4′-oxo-] | – | 10 to 100 |
| O=C(NCc1ccc(F)cc1)c1nc2n(c(=O)c1O)CCCC21CCC1 [Example 66, N-[(4-fluorophenyl)methyl]-7′,8′-dihydro-3′-hydroxy-4′-oxo-spiro[cyclobutane-1,9′(6′H)-[4H]pyrido[1,2-α]pyrimidine]-2′-carboxamide] | 1 to 10 | – |
| O=C(NCc1ccc(Cl)cc1)c1nc2n(c(=O)c1O)CCCC21CCC1 [Example 65, N-[(4-chlorophenyl)methyl]-7′,8′-dihydro-3′-hydroxy-4′-oxo-spiro[cyclobutane-1,9′(6′H)-[4H]pyrido[1,2-α]pyrimidine]-2′-carboxamide] | 1 to 10 | – |
| O=C(NCc1cc(F)ccc1F)c1nc2n(c(=O)c1O)CCCC21CCC1 [Example 75, N-[(2,5-difluorophenyl)methyl]-7′,8′-dihydro-3′-hydroxy-4′-oxo-spiro[cyclobutane-1,9′(6′H)-[4H]pyrido[1,2-α]pyrimidine]-2′-carboxamide] | 10 to 100 | – |
| Cc1ccc(CNC(=O)c2nc3n(c(=O)c2O)CCCC32CCC2)cc1C [Example 69, N-[(3,4-dimethylphenyl)methyl]-7′,8′-dihydro-3′-hydroxy-4′-oxo-spiro[cyclobutane-1,9′(6′H)-[4H]pyrido[1,2-α]pyrimidine]-2′-carboxamide] | 1 to 10 | – |
| O=C(NCc1ccccc1)c1nc2n(c(=O)c1O)CCCC21CCC1 [Example 62, N-(phenylmethyl)-7′,8′-dihydro-3′-hydroxy-4′-oxo-spiro[cyclobutane-1,9′(6′H)-[4H]pyrido[1,2-α]pyrimidine]-2′-carboxamide] | 1 to 10 | – |
| COc1ccc(CNC(=O)c2nc3n(c(=O)c2O)CCOC32CCCC2)cc1 [Example 23, 6′,7′-dihydro-3′-hydroxy-N-[(4-methoxyphenyl)methyl]-4′-oxo-spiro[cyclopentane-1,9′(4′H)-pyrimido[2,1-c][1,4]oxazine]-2′-carboxamide] | 10 to 100 | – |
| O=C(NCc1ccccc1N1CCCCS1(=O)=O)c1nc2n(c(=O)c1O)CCCC21CCC1 [Example 83, 7′,8′-dihydro-3′-hydroxy-4′-oxo-N-[[2-(tetrahydro-1,1-dioxido-2H-1,2-thiazin-2-yl)phenyl]methyl]-spiro[cyclobutane-1,9′(6′H)-[4H]pyrido[1,2-α]pyrimidine]-2′-carboxamide] | 10 to 100 | – |
| O=C(NCc1ccc(F)cc1-n1ccnc1)c1nc2n(c(=O)c1O)CCCC21CCCC1 [Example 7, N-[[4-fluoro-2-(1H-imidazol-1-yl)phenyl]methyl]-7′,8′-dihydro-3′-hydroxy-4′-oxo-spiro[cyclopentane-1,9′(6′H)-[4H]pyrido[1,2-α]pyrimidine]-2′-carboxamide] | 1 to 10 | – |
| O=C(NCc1ccc(F)cc1N1CCC1=O)c1nc2n(c(=O)c1O)CCOC21CCC1 [Example 106, Spiro[cyclobutane-1,9′(4′H)-pyrimido[2,1-c][1,4]oxazine]-2′-carboxamide, N-[[4-fluoro-2-(2-oxo-1-azetidinyl)phenyl]methyl]-6′,7′-dihydro-3′-hydroxy-4′-oxo-] | – | 1 to 10 |
| O=C(NCc1cccc(F)c1)c1nc2n(c(=O)c1O)CCCC21CCC1 [Example 67] | 1 to 10 | – |
| O=C(NCc1ccc(F)cc1)c1nc2n(c(=O)c1O)CCCOC21CCC1 [Example 59, N-[(4-fluorophenyl)methyl]-7′,8′-dihydro-3′-hydroxy-4′-oxo-spiro[cyclobutane-1,1 0′(4′H)-[6H]pyrimido[2,1-c][1,4]oxazepine]-2′-carboxamide] | 1 to 10 | – |
| O=C(NCc1ccccc1-n1cncn1)c1nc2n(c(=O)c1O)CCOC21CCCC1 [Example 33, 6′,7′-dihydro-3′-hydroxy-4′-oxo-N-[[2-(1H-1,2,4-triazol-1-yl)phenyl]methyl]-spiro[cyclopentane-1,9′(4′H)-pyrimido[2,1-c][1,4]oxazine]-2′-carboxamide] | 1 to 10 | – |
| O=C(NCc1ccccc1N1CCCCS1(=O)=O)c1nc2n(c(=O)c1O)CCOC21CCCC1 [Example 35, 6′,7′-dihydro-3′-hydroxy-4′-oxo-N-[[2-(tetrahydro-1,1-dioxido-2H-1,2-thiazin-2-yl)phenyl]methyl]-spiro[cyclopentane-1,9′(4′H)-pyrimido[2,1-c][1,4]oxazine]-2′-carboxamide] | 10 to 100 | – |
| O=C(NCc1ccc(F)cc1-n1cncn1)c1nc2n(c(=O)c1O)CCOC21CCCC1 [Example 17, N-[[4-fluoro-2-(1 H-1,2,4-triazol-1-yl)phenyl]methyl]-6′,7′-dihydro-3′-hydroxy-4′-oxo-spiro[cyclopentane-1,9′(4′H)-pyrimido[2,1-c][1,4]oxazine]-2′-carboxamide] | 1 to 10 | – |
